{"source": "patent US20050187194A1", "about": "“Preventive agents for diabetes mellitus” (SANKYO COMPANY LIMITED, priority 2002, published 2005)", "key": {"GK rats [1]": {"test_system": "GK rats", "assay": "Improving effects on impaired glucose tolerance: oral glucose load in fasted GK rats, AUC of blood glucose", "format": "in vivo, rat", "conditions": "2 g/kg glucose 1 hour later", "description": "6-week-old GK rats of (Charles River Japan, Inc.) which show IGT symptoms, but not diabetes mellitus, were fasted overnight. Compound A was orally administered at dosages of 10, 20 or 40 mg/kg. Two gram per kilogram of 50% (w/w) glucose solution was orally administered 1 hour after the administration of Compound A. The rats in the control group were administered orally 2 g/kg of 50% (w/w) glucose solution only.\nThe blood was collected from the tail vein just before and 0.5, 1, 2 and 4 hours after the glucose administration. Blood glucose level was determined by electric potential measurement method based on a glucose oxidase immobilized electrode using Glucoloader GXT (A&T Corp.).\nOn the abscissas, the time after the administration of Compound A was plotted, and on the ordinate, the blood glucose level of each individual was plotted. Each point was drawn with a straight line. The areas under the curves (AUCs) for the blood glucose levels of the graph obtained were calculated.\nUsing the areas under the curves (AUCs) for the blood glucose levels, the average value and standard error of each group were calculated. […]\nThe blood was collected from the tail vein just before and 0.5, 1 and 2 hours after the glucose administration. Blood glucose level was determined by electric potential measurement method based on a glucose oxidase immobilized electrode using Glucoloader GXT (A&T Corp.). […]"}, "GK rats [2]": {"test_system": "GK rats", "assay": "Preventative effects on diabetes mellitus in GK rats prior to the crisis of diabetes (drug mixed in food, 8 weeks)", "format": "in vivo, rat", "source_text": "6-week-old GK rats (Charles River Japan, Inc.) which were prior to the crisis of diabetes mellitus, were used. Compound A was mixed with food powder for the rat (F2, Funabashi Farm Co.,) at concentrations of 0.04%, 0.2% and 1.0% (w/w) and was orally administered to 4-6 rats per group for 8 weeks ad libitum (the mean amount of food intake per rat: 17.3 g/day).\nThe rats in the control group were fed with only food powder.\nBlood from each rat was collected from the tail vein every 2 weeks, and the blood glucose level, plasma lactate level and plasma triglyceride level were determined. Blood glucose level was determined by electric potential measurement method based on glucose oxidase immobilized electrode using Glucoloader GXT (A&T Corp.). Plasma lactate level was determined using a spectrophotometric method with Lactate Reagent (Sigma-Aldrich Japan K. K.), and plasma triglyceride level was determined using a spectrophotometric method with Triglyceride E Test Wako (Wako Pure Chemical Industries, Ltd.). When the blood was collected after the drug administration period and the drug withdrawal period for 2 weeks, glycosylated hemoglobin ratio was also determined with DCA-2000 (Bayer Medical Co., Ltd.)."}, "patients": {"test_system": "patients", "conditions": "patients treated with metformin; N Engl J Med 346, 393-403 (2002); cited from earlier work"}}, "data": [{"molecule": "CCOC(=O)[C@H](C)NP(=O)(N[C@@H](C)C(=O)OCC)c1ccc(-c2nc(N)sc2CC(C)C)o1", "note": "[Compound A, 2-amino-5-isobutyl-4-{2-[5-(N,N′-bis((S)-1-ethoxycarbonyl)ethyl)phosphonamido]furanyl}thiazole]", "values": [{"measurement": "AUCs of the blood glucose levels", "setting": "GK rats [1]; GK rats fasted overnight, 10, 20 or 40 mg/kg oral, blood to 4 hours, FIG. 5", "value": "decreased by the treatment of Compound A in a dose-dependent manner"}, {"measurement": "increase in the blood glucose level", "setting": "GK rats [2]; 6-week-old GK rats, 0.04%, 0.2% and 1.0% (w/w) in food, oral, 8 weeks, FIG. 1", "value": "inhibited in a dose-dependent manner"}, {"measurement": "glycosylated hemoglobin ratio", "setting": "GK rats [2]; GK rats, after 8 weeks of 0.04%, 0.2% and 1.0% (w/w) in food, FIG. 2", "value": "decreased in a dose-dependent manner"}, {"measurement": "gastrointestinal symptoms such as diarrhea", "setting": "GK rats [2]; GK rats, all the groups examined", "value": "no animal suffered gastrointestinal symptoms such as diarrhea"}, {"measurement": "blood glucose level after the drug administration period was terminated", "setting": "GK rats [2]; GK rats, drug withdrawal period 2 weeks, FIG. 1", "value": "attained the same maximum level as that in the control group"}, {"measurement": "glycosylated hemoglobin ratio after withdrawal of administration", "setting": "GK rats [2]; GK rats, drug withdrawal period 2 weeks, FIG. 2", "value": "increased to the same level as that in the control group"}, {"measurement": "plasma triglyceride level", "setting": "GK rats [2]; GK rats, during the administration period, FIG. 3", "value": "not increased as much as those in the control rats or was prevented from increase"}, {"measurement": "plasma lactate level", "setting": "GK rats [2]; GK rats, during the administration period, versus control group, FIG. 4", "value": "not significantly different from the control group"}]}, {"molecule": "CCOc1cc2ncnc(Nc3cccc(-c4csc(C)n4)c3)c2cc1OCC", "note": "[Compound B, (6,7-diethoxy-quinazolin-4-yl)-[3-(2-methyl-thiazol-4-yl)phenyl]amine]", "values": [{"measurement": "AUCs of the blood glucose levels", "setting": "GK rats [1]; GK rats fasted overnight, 100 mg/kg or 300 mg/kg oral, blood to 2 hours, FIG. 6", "value": "decreased by the treatment of Compound B in a dose-dependent manner"}]}, {"molecule": "CN(C)C(=N)N=C(N)N", "note": "[metformin]", "values": [{"measurement": "patients with gastrointestinal symptoms such as diarrhea", "setting": "patients", "value": "approximately 80%"}]}]}
